Results as given in patent US9884806B2, “Cyclic vinylogous amides as bromodomain inhibitors” (ICAHN SCHOOL OF MEDICINE AT MOUNT SINAI, priority 2013, dated 2018).

Legend:
[1] = molecular target: T1, first bromodomain (BrD1) of human BRD4 (Homo sapiens, UniProt O60885); experiment: Fluorescence anisotropy binding assay (competition with FITC-labeled MS417 probe); details: FITC-MS417 probe 80 nM, PBS pH 7.4, 1 hour, 25° C., read-out: BRD4_1 IC50
T1 construct: the first bromodomain (BrD1) of human BRD4; poly-His (cleaved yes); made in house
In short: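 BRD4 BrD1 (His tag removed by thrombin) at 0.25 to 1 μM competed against 80 nM FITC-labeled MS417 in PBS pH 7.4. Anisotropy read after 1 hour at 25° C. Ki derived from fitted IC50 by Nikolovska-Coleska-corrected Cheng-Prusoff equation, one-site competitive model.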

BRD4_2 = molecular target: T2, BRD4_2 (Homo sapiens, UniProt O60885); experiment: Fluorescence anisotropy binding assay (competition with FITC-labeled MS417 probe), BRD4_2; details: FITC-MS417 probe 80 nM, PBS pH 7.4, 1 hour, 25° C.
T2 construct: contains two tandem bromodomains (BrD1 and BrD2)

SMILES | melting point [°C] | IC50 [1] [µM] | IC50 (BRD4_2) [µM]
CC1=C(Nc2cccc(Br)c2)CCC1=O | 291 to 294 |  | 
COc1c(NC2=C(C)C(=O)CC2)cccc1C(=O)O | 220 to 223 |  | 
CC1=C(Nc2cc(Cl)c(C(=O)O)cc2Cl)CCC1=O | 229 to 232 |  | 
CC1=C(Nc2cc(C(=O)O)ccc2C(F)(F)F)CCCC1=O | 209 to 212 |  | 
CC1=C(NC2(C(F)(F)F)C=CC(C(=O)O)=CC2)CCCC1=O (stereo not drawn) | 229 to 231 |  | 
CC1=C(Nc2ccc(S(N)(=O)=O)cc2)CCC1=O (hydrate or solvate) [Example 01-06, 4-((2-methyl-3-oxocyclopent-1-en-1-yl)amino)benzenesulfonamide] | 245 to 247 |  | 
CC1=C(Nc2ccc(C#N)cc2)CCC1=O (hydrate or solvate) [Example 01-07, 4-((2-methyl-3-oxocyclopent-1-en-1-yl)amino)benzonitrile] | 204 to 206 |  | 
CC1=C(Nc2ccc(S(=O)(=O)Nc3ccccn3)cc2)CCC1=O (hydrate or solvate) [Example 01-31, 4-((2-methyl-3-oxocyclopent-1-en-1-yl)amino)-N-(pyridin-2-yl)benzenesulfonamide] | 230 to 233 |  | 
CC1=C(NC2CCN(C(=O)OC(C)(C)C)CC2)CCC1=O (hydrate or solvate) [Example 01-32, tert-Butyl 4-((2-methyl-3-oxocyclopent-1-en-1-yl)amino)piperidine-1-carboxylate] | 189 to 191 |  | 
CC1=C(N[C@H]2CC[C@H](C(=O)O)CC2)CCC1=O (hydrate or solvate) [Example 01-33, trans-(1R,4R)-4-((2-methyl-3-oxocyclopent-1-en-1-yl)amino)cyclo6hexane-carboxylic acid] | 236 to 238 |  | 
CC1=C(N[C@H]2CC[C@@H](C(=O)O)CC2)CCC1=O (hydrate or solvate) [Example 01-34, cis-(1S,4S)-4-((2-methyl-3-oxocyclopent-1-en-1-yl)amino)cyclohexanecarboxylic acid] | 233 to 235 |  | 
CC1=C(Nc2cccc(C(=O)O)c2)CCC1=O [Example 01-03, 3((2-methyl-3-oxocyclopent-1-en-1-yl)amino)benzoic acid] | 236 to 238 |  | 
COC(=O)c1cccc(NC2=C(C)C(=O)CC2)c1 [Example 01-04, methyl 3-((2-methyl-3-oxocyclopent-1-en-1-yl)amino)benzoate] | 133 to 135 |  | 
CC(=O)c1ccc(NC2=C(C)C(=O)CC2)cc1 [Example 01-09, 3-((4-acetylphenyl)amino)-2-methylcyclopent-2-enone] | 270 to 273 |  | 
CC1=C(Nc2ccc(C(=O)O)c(Cl)c2)CCC1=O [Example 01-10, 2-chloro-4((2-methyl-3-oxocyclopent-1-en-1-yl)amino)benzoic acid] | 239 to 241 | > 10 | > 10
COc1cc(C(=O)O)ccc1NC1=C(C)C(=O)CC1 [Example 01-12, 3-methoxy-4-((2-methyl-3-oxocyclopent-1-en-1-yl)amino)benzoic acid] | 231 to 234 | 1 to 10 | 1 to 10
COC(=O)c1ccc(NC2=C(C)C(=O)CC2)cc1OC [Example 01-13, methyl 2-methoxy-4-((2-methyl-3-oxocyclopent-1-en-1-yl)amino)benzoate] | 193 to 196 | 1 to 10 | 1 to 10
CC1=C(Nc2ccc(C(=O)O)cc2C)CCC1=O [Example 01-14, 3-methyl-4-((2-methyl-3-oxocyclopent-1-en-1-yl)amino)benzoic acid] | 233 to 236 | 1 to 10 | 1 to 10
CC1=C(Nc2ccc(C(=O)O)c(C)c2)CCC1=O [Example 01-16, 2-methyl-4-((2-methyl-3-oxocyclopent-1-en-1-yl)amino)benzoic acid] | 213 to 216 | > 10 | > 10
CC1=C(Nc2ccccc2C(N)=O)CCC1=O [Example 01-18, 2-((2-methyl-3-oxocyclopent-1-en-1-yl)amino)benzamide] | 235 to 238 | > 10 | > 10
COC(=O)c1cc(Cl)ccc1NC1=C(C)C(=O)CC1 [Example 01-20, methyl 5-chloro-2-((2-methyl-3-oxocyclopent-1-en-1-yl)amino)benzoate] | 162 to 165 | > 10 | > 10
COC(=O)c1ccc(NC2=C(C)C(=O)CC2)c(F)c1 [Example 01-21, methyl 3-fluoro-4((2-methyl-3-oxocyclopent-1-en-1-yl)amino)benzoate] | 198 to 201 | 1 to 10 | > 10
COC(=O)c1ccc(NC2=C(C)C(=O)CC2)c(Br)c1 [Example 01-22, methyl 3-bromo-4((2-methyl-3-oxocyclopent-1-en-1-yl)amino)benzoate] | 155 to 158 | 1 to 10 | 1 to 10
CC1=C(Nc2cccc(Cl)c2C(=O)O)CCC1=O [Example 01-23, 2-chloro-6((2-methyl-3-oxocyclopent-1-en-1-yl)amino)benzoic acid] | 277 to 280 | > 10 | > 10
COC(=O)c1ccc(Cl)cc1NC1=C(C)C(=O)CC1 [Example 01-24, methyl 4-chloro-2-((2-methyl-3-oxocyclopent-1-en-1-yl)amino)benzoate] | 167 to 170 | 1 to 10 | > 10
CC1=C(Nc2ccc(CC(=O)O)cc2)CCCC1=O [Example 01-38, 2-(4((2-methyl-3-oxocyclohex-1-en-1-yl)amino)phenyl)acetic acid] | 215 to 219 |  | 

Other lines, results leading:

melting point [°C] | IC50 [1] [µM] | IC50 (BRD4_2) [µM] | SMILES
223 to 225 |  |  | CC1=C(Nc2cccc(S(N)(=O)=O)c2)CCC1=O (hydrate or solvate) [Example 01-45, 3((2-methyl-3-oxocyclopent-1-en-1-yl)amino)benzenesulfonamide]
223 to 225 |  |  | CC1=C(Nc2cc(S(N)(=O)=O)ccc2Cl)CCC1=O (hydrate or solvate) [Example 01-46, 4-chloro-3-((2-methyl-3-oxocyclopent-1-en-1-yl)amino)benzene-sulfonamide]
234 to 236 |  |  | CC(=O)Nc1ccc(Cl)c(NC2=C(C)C(=O)CCC2)c1 [Example 01-47, N-(4-chloro-3-((2-methyl-3-oxocyclohex-1-en-1-yl)amino)phenyl)-acetamide]
228 to 230 |  |  | CC1=C(Nc2ccc(C(=O)O)cc2)CCC1=O [Example 02-01, 4((2-methyl-3-oxocyclopent-1-en-1-yl)amino)benzoic acid]
226 to 230 |  |  | CC1=C(Nc2ccc(C(=O)O)cc2Cl)CCC1=O [Example 02-02, 3-chloro-4((2-methyl-3-oxocyclopent-1-en-1-yl)amino)benzoic acid]
240 to 243 |  |  | COc1cc(NC2=C(C)C(=O)CC2)ccc1C(=O)O [Example 02-03, 2-methoxy-4((2-methyl-3-oxocyclopent-1-en-1-yl)amino)benzoic acid]
245 to 248 |  |  | CC1=C(Nc2ccccc2C(=O)O)CCC1=O [Example 02-04, 2-((2-methyl-3-oxocyclopent-1-en-1-yl)amino)benzoic acid]
242 to 245 |  |  | CC1=C(Nc2ccc(Cl)cc2C(=O)O)CCC1=O [Example 02-05, 5-chloro-2-((2-methyl-3-oxocyclopent-1-en-1-yl)amino)benzoic acid]
210 to 213 |  |  | CC1=C(Nc2ccc(C(=O)O)cc2F)CCC1=O [Example 02-06, 3-fluoro-4((2-methyl-3-oxocyclopent-1-en-1-yl)amino)benzoic acid]
246 to 248 |  |  | CC1=C(Nc2ccc(C(=O)O)cc2Br)CCC1=O [Example 02-07, 3-bromo-4-((2-methyl-3-oxocyclopent-1-en-1-yl)amino)benzoic acid]
263 to 264 |  |  | CC1=C(Nc2ccc(C(=O)O)cc2I)CCC1=O [Example 02-08, 3-iodo-4-((2-methyl-3-oxocyclopent-1-en-1-yl)amino)benzoic acid]
 | 1 to 10 | 1 to 10 | CC1=C(Nc2ccc(C(=O)O)cc2Cl)CCC1=O [Examples 02-2]
 | > 10 | > 10 | COc1cc(NC2=C(C)C(=O)CC2)ccc1C(=O)O [Examples 02-3]
 | > 10 | > 10 | CC1=C(Nc2ccccc2C(=O)O)CCC1=O [Examples 02-4]
 | > 10 | > 10 | CC1=C(Nc2ccc(Cl)cc2C(=O)O)CCC1=O [Examples 02-5]
 | 1 to 10 | > 10 | CC1=C(Nc2ccc(C(=O)O)cc2F)CCC1=O [Examples 02-6]
 | 1 to 10 | > 10 | CC1=C(Nc2ccc(C(=O)O)cc2Br)CCC1=O [Examples 02-7]
 | 1 to 10 | 1 to 10 | CC1=C(Nc2ccc(C(=O)O)cc2I)CCC1=O [Examples 02-8]
 | > 10 | > 10 | COC(=O)c1ccc(Br)c(NC2=C(C)C(=O)CCC2)c1 [Examples 02-9]
 | 1 to 10 | > 10 | C#Cc1cccc(NC2=C(C)C(=O)CC2)c1 [Examples 06-1]
 | 1 to 10 | 1 to 10 | CC1=C(Nc2cccc(-c3cn(-c4ccccc4)nn3)c2)CCC1=O [Examples 06-2, 2-methyl-3-((3-(1-phenyl-1H-1,2,3-triazol-4-yl)phenyl)amino)cyclopent-2-enone]
 | < 1 | 1 to 10 | CC1=C(Nc2cccc(-c3cn(Cc4ccccc4F)nn3)c2)CCC1=O [Examples 06-8]
